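Briefly, cells in 96-well plates were exposed to five compound concentrations for 48 h, and endpoints were estimated by linear interpolation. GI50 marks 50% less growth. The concentration for full growth arrest is given as TGI.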
Experiments:
Experiment in all cases: inhibition of tumour cell growth, NCI panel, 48 h
NCI-H226 lung = test system: NCI-H226 lung
NCI-H23 lung = test system: NCI-H23 lung
NCI-H460 lung = test system: NCI-H460 lung
NCI-H522 lung = test system: NCI-H522 lung
NCI/ADR-RES ovarian = test system: NCI/ADR-RES ovarian
OVCAR-3 ovarian = test system: OVCAR-3 ovarian
OVCAR-4 ovarian = test system: OVCAR-4 ovarian
OVCAR-5 ovarian = test system: OVCAR-5 ovarian
OVCAR-8 ovarian = test system: OVCAR-8 ovarian
PC-3 prostate = test system: PC-3 prostate
RPMI-8226 leukemia = test system: RPMI-8226 leukemia
RXF 393 renal = test system: RXF 393 renal
SF-268 CNS = test system: SF-268 CNS
SF-295 CNS = test system: SF-295 CNS
SK-MEL-2 melanoma = test system: SK-MEL-2 melanoma
SK-MEL-28 melanoma = test system: SK-MEL-28 melanoma
SK-OV-3 ovarian = test system: SK-OV-3 ovarian
SN12C renal = test system: SN12C renal
SNB-19 CNS = test system: SNB-19 CNS
SNB-75 CNS = test system: SNB-75 CNS
SR leukemia = test system: SR leukemia
SW-620 colon = test system: SW-620 colon
T-47D breast = test system: T-47D breast
TK-10 renal = test system: TK-10 renal
U251 CNS = test system: U251 CNS
UACC-257 melanoma = test system: UACC-257 melanoma
UACC-62 melanoma = test system: UACC-62 melanoma
UO-31 renal = test system: UO-31 renal

## COc1ccc(CNS(=O)(=O)/N=C2\NC(=O)NC2=C(Cl)Cl)cc1
NCI-H226 lung
  GI50: 2.03 µM
  TGI: 5.51 µM
NCI-H23 lung
  GI50: 3.8 µM
  TGI: 17.7 µM
NCI-H460 lung
  GI50: 2.82 µM
  TGI: > 100 µM
NCI-H522 lung
  GI50: 2.07 µM
  TGI: 14.2 µM
NCI/ADR-RES ovarian
  GI50: 2.93 µM
  TGI: > 100 µM
OVCAR-3 ovarian
  GI50: 1.59 µM
  TGI: 17.5 µM
OVCAR-4 ovarian
  GI50: 4.47 µM
  TGI: > 100 µM
OVCAR-5 ovarian
  GI50: 3.23 µM
  TGI: > 100 µM
OVCAR-8 ovarian
  GI50: 3.38 µM
  TGI: > 100 µM
PC-3 prostate
  GI50: 2.61 µM
  TGI: > 100 µM
RPMI-8226 leukemia
  GI50: 0.352 µM
  TGI: 5.21 µM
RXF 393 renal
  GI50: 1.71 µM
  TGI: 6.79 µM
SF-268 CNS
  GI50: 0.541 µM
  TGI: > 100 µM
SF-295 CNS
  GI50: 2.85 µM
  TGI: > 100 µM
SK-MEL-2 melanoma
  GI50: 6.27 µM
  TGI: 42.8 µM
SK-MEL-28 melanoma
  GI50: 8.08 µM
  TGI: 22 µM
SK-OV-3 ovarian
  GI50: 8.22 µM
  TGI: > 100 µM
SN12C renal
  GI50: 0.811 µM
  TGI: > 100 µM
SNB-19 CNS
  GI50: 1.14 µM
  TGI: > 100 µM
SNB-75 CNS
  GI50: 1.34 µM
  TGI: > 100 µM
SR leukemia
  GI50: 2.86 µM
  TGI: 22.8 µM
SW-620 colon
  GI50: 2.45 µM
  TGI: 16.6 µM
T-47D breast
  GI50: 2.4 µM
  TGI: > 100 µM
TK-10 renal
  GI50: 6.55 µM
  TGI: > 100 µM
U251 CNS
  GI50: 1.7 µM
  TGI: 14.6 µM
UACC-257 melanoma
  GI50: 10.7 µM
  TGI: 68.6 µM
UACC-62 melanoma
  GI50: 2.89 µM
  TGI: 18.2 µM
UO-31 renal
  GI50: 5.13 µM
  TGI: > 100 µM

From PubChem BioAssay (NCI)
